Data on two molecules can be found in publication doi:10.1101/2023.07.11.548539v1, “A side-by-side comparison of peptide-delivered antisense antibiotics employing different nucleotide mimics” (bioRxiv, 2023).

The experiment has as its system outer membrane of Salmonella. Description: Outer membrane permeabilization (NPN fluorescence). The note with it: test compounds 10 µM final, added at 14 min; NPN 10 µM; 5 mM HEPES, 5 mM glucose pH 7.2; CTAB and Polymyxin B positive controls. Type of experiment: cell-based, Salmonella enterica serovar Typhimurium strain SL1344. As to the method: The experiments were performed by modifying previously published protocols ([48]–[50]). Salmonella (WT SL1344, JVS-1574) were grown overnight in 4 ml MHB medium at 37 °C (with shaking at 220 rpm). Then the culture was diluted 1:100 and grown until OD 0.5 (∼2×10^8 cfu/mL). This culture was harvested and washed two times with 5mM HEPES and further diluted to OD 0.2 in 5 mM HEPES supplemented with 5 mM Glucose (pH 7.2). These cells were then incubated with N-phenylnaphthylamine (NPN) (Sigma, USA) at a final concentration of 10 µM. 190 µl of NPN treated cells were transferred into 96-well back plates with transparent bottom and fluorescence (excitation = 350 nm, emission = 420 nm) was recorded for 60 min (reading was performed every minute) using a Synergy H1 plate reader (Biotek). On the fourteenth minute, 10 µl of the test compounds (10 µM final concentration) was added into the wells. CTAB (Sigma, USA) 200 µM or Polymyxin B (Sigma, USA) 10 µg/ml (final concentration of 0.5 µg/ml) were used as positive controls, while water was used as negative control. The fluorescence of the wells were monitored using the same settings as above. The experiment was performed three times and Figure 10 is based on a single representative experiment.

As for `CCCCCCCCCCCCCCCC[N+](C)(C)C.[Br-]` [CTAB, reference compound], the “Outer membrane permeabilization, NPN fluorescence (in words)” value is on record as “rapid increase in florescence”.

Consider Polymyxin B [reference compound], for which the “Outer membrane permeabilization, NPN fluorescence (in words)” value is given as “rapid increase in florescence”.
